This is an account of results in ChEMBL document CHEMBL5104101, “Insights into the modular design of kinase inhibitors and application to Abl and Axl” (RSC Med Chem, 2022).

Active and inactive are the calls of the source. The calls are words filed in the database; no cut-off is given here.

Assay [1] concerns the target Mitogen-activated protein kinase 11 (Homo sapiens) (UniProt Q15759). As to the kind of experiment: Inhibition of MAPK11 (unknown origin) by Nano-syn mobility shift assay.
Assay [2] concerns the target Tyrosine-protein kinase Lck (Homo sapiens) (UniProt P06239). As to the kind of experiment: Inhibition of LCK (unknown origin) by Nano-syn mobility shift assay. As to conditions: concentration not given here.
Assay [3] deals with Discoidin domain-containing receptor 2 (Homo sapiens) (UniProt Q16832). In words: Inhibition of DDR2 (unknown origin) by Nano-syn mobility shift assay.
Assay [4] is filed under the species Homo sapiens. As to the kind of experiment: Inhibition of LYNA (unknown origin) by Nano-syn mobility shift assay. Conditions: concentration not given here.
In a further assay the test system is K562. In words: Cytotoxicity against human K562 cells assessed as cell growth inhibition incubated for 72 hrs by celltiter-glo luminescent cell viability assay. The class given is functional.
Assay [5] addresses MAP kinase-interacting serine/threonine-protein kinase 1 (Homo sapiens) (UniProt Q9BUB5). As to the kind of experiment: Inhibition of MKNK1 (unknown origin) by Nano-syn mobility shift assay.
For assay [6], the target named is MAP kinase-interacting serine/threonine-protein kinase 2 (Homo sapiens) (UniProt Q9HBH9). As to the kind of experiment: Inhibition of MKNK2 (unknown origin) by Nano-syn mobility shift assay.
Assay [7] addresses Tyrosine-protein kinase ABL2 (Homo sapiens) (UniProt P42684). As to the kind of experiment: Inhibition of ABL2 (unknown origin) by Nano-syn mobility shift assay. As to conditions: concentration not given here.
Assay [8] has as its target Tyrosine-protein kinase ABL1 (Homo sapiens, UniProt P00519). As to the kind of experiment: Inhibition of NanoLuc-tagged ABL1 wild type (unknown origin) expressed in HEK293 cells by NanoBRET TE assay. The class given is cell-based. A general note: In BRET a luciferase serves as donor, and the signal depends on an acceptor being close.
Assay [9] addresses Platelet-derived growth factor receptor alpha (Homo sapiens) (UniProt P16234). As to the kind of experiment: Inhibition of PDFGRA (unknown origin) by Nano-syn mobility shift assay. As to conditions: concentration not given here.
In assay [10] the target is RAF proto-oncogene serine/threonine-protein kinase (Homo sapiens) (UniProt P04049). In words: Inhibition of CRAF (unknown origin) by Nano-syn mobility shift assay.
Assay [11] deals with Receptor-type tyrosine-protein kinase FLT3 (Homo sapiens) (UniProt P36888). In words: Inhibition of FLT3 (unknown origin) by Nano-syn mobility shift assay. Conditions: concentration not given here.
For assay [12], the target named is Vascular endothelial growth factor receptor 2 (Homo sapiens) (UniProt P35968). In words: Inhibition of KDR (unknown origin) by Nano-syn mobility shift assay.
Assay [13] concerns BaF3. In words: Cytotoxicity against mouse BaF3 cells stably expressing ABL-T315I mutant assessed as cell growth inhibition incubated for 72 hrs by celltiter-glo luminescent cell viability assay. In kind it is functional.
Assay [14] is filed under the species Homo sapiens. As to the kind of experiment: Inhibition of LYNB (unknown origin) by Nano-syn mobility shift assay. As to conditions: concentration not given here.
Assay [15] concerns the target Proto-oncogene tyrosine-protein kinase receptor Ret (Homo sapiens) (UniProt P07949). As to the kind of experiment: Inhibition of RET (unknown origin) by Nano-syn mobility shift assay.
In assay [16] the target is High affinity nerve growth factor receptor (Homo sapiens) (UniProt P04629). As to the kind of experiment: Inhibition of NTRK1 (unknown origin) by Nano-syn mobility shift assay. Conditions: concentration not given here.
In assay [17] the target is Platelet-derived growth factor receptor beta (Homo sapiens) (UniProt P09619). In words: Inhibition of PDFGRB (unknown origin) by Nano-syn mobility shift assay.
For assay [18], the target named is Vascular endothelial growth factor receptor 3 (Homo sapiens) (UniProt P35916). As to the kind of experiment: Inhibition of FLT4 (unknown origin) by Nano-syn mobility shift assay.
For assay [19], the target named is Angiopoietin-1 receptor (Homo sapiens) (UniProt Q02763). In words: Inhibition of TEK (unknown origin) by Nano-syn mobility shift assay. Conditions: concentration not given here.
In assay [20] the target is Vascular endothelial growth factor receptor 1 (Homo sapiens) (UniProt P17948). In words: Inhibition of FLT1 (unknown origin) by Nano-syn mobility shift assay.
Assay [21] concerns the target Ephrin type-A receptor 8 (Homo sapiens) (UniProt P29322). As to the kind of experiment: Inhibition of EPH-A8 (unknown origin) by Nano-syn mobility shift assay.
For assay [22], the target named is Muscle, skeletal receptor tyrosine-protein kinase (Homo sapiens) (UniProt O15146). In words: Inhibition of MUSK (unknown origin) by Nano-syn mobility shift assay.
Assay [23] concerns BaF3. As to the kind of experiment: Cytotoxicity against mouse BaF3 cells stably expressing ABL wildtype assessed as cell growth inhibition incubated for 72 hrs by celltiter-glo luminescent cell viability assay. The class given is functional. (In general: In ATP-based viability assays light output follows the ATP content of the culture.)
For assay [24], the target named is Mitogen-activated protein kinase 14 (Homo sapiens) (UniProt Q16539). As to the kind of experiment: Inhibition of MAPK14 (unknown origin) by Nano-syn mobility shift assay.
Assay [25] concerns the target Tyrosine-protein kinase Fgr (Homo sapiens) (UniProt P09769). In words: Inhibition of FGR (unknown origin) by Nano-syn mobility shift assay.
Assay [26] has as its target Tyrosine-protein kinase receptor UFO (Homo sapiens) (UniProt P30530). As to the kind of experiment: Inhibition of AXL (unknown origin) by Nano-syn mobility shift assay.
The target in assay [27] is Fibroblast growth factor receptor 1 (Homo sapiens) (UniProt P11362). As to the kind of experiment: Inhibition of FGFR1 (unknown origin) by Nano-syn mobility shift assay.
In assay [28] the target is Ephrin type-A receptor 2 (Homo sapiens) (UniProt P29317). As to the kind of experiment: Inhibition of EPH-A2 (unknown origin) by Nano-syn mobility shift assay.
Assay [29] deals with Fibroblast growth factor receptor 3 (Homo sapiens) (UniProt P22607). As to the kind of experiment: Inhibition of FGFR3 (unknown origin) by Nano-syn mobility shift assay.
The target in assay [30] is Tyrosine-protein kinase receptor UFO (Homo sapiens, UniProt P30530). In words: Inhibition of AXL (unknown origin) using peptide substrate in presence of ATP by radiometric HotSpot assay.

Chain of Mitogen-activated protein kinase 11 (Homo sapiens) (Q15759 whole entry): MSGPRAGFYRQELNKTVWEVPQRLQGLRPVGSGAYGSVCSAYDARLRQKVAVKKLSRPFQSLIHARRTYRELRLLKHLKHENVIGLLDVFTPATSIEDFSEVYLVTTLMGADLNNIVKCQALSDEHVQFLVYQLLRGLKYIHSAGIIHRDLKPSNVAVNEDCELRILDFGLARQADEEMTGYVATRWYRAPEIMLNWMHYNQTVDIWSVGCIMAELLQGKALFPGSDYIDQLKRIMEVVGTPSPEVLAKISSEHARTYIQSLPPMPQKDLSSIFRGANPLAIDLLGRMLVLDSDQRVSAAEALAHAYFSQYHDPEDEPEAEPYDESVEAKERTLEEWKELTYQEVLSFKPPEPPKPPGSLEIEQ
Chain of Platelet-derived growth factor receptor alpha (Homo sapiens) (P16234 whole entry): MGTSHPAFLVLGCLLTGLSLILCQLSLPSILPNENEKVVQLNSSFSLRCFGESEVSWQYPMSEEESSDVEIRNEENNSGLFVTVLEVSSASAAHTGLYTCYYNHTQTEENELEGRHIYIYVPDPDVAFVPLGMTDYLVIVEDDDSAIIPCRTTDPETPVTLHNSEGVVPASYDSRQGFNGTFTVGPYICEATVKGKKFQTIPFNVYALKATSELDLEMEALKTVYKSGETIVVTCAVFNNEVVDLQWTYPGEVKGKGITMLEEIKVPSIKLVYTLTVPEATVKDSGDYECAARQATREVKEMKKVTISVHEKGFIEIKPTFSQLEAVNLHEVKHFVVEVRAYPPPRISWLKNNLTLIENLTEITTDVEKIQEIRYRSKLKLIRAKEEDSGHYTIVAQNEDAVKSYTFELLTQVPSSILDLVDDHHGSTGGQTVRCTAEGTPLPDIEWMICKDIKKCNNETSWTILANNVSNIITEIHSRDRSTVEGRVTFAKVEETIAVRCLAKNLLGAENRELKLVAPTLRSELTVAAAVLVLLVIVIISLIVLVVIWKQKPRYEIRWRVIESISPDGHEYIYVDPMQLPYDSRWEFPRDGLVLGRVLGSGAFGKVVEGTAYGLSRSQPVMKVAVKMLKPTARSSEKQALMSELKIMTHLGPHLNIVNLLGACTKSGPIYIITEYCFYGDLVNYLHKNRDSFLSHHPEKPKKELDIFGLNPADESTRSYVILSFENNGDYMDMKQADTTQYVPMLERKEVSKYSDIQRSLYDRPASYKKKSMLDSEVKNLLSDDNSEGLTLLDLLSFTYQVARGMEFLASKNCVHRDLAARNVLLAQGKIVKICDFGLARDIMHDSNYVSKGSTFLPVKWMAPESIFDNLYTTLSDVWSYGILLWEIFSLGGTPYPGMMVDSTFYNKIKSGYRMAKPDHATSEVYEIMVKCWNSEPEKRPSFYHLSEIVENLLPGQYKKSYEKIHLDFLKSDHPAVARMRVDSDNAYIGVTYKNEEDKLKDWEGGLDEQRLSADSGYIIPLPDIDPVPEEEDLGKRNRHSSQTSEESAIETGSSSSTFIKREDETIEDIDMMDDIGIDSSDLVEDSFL
Chain of MAP kinase-interacting serine/threonine-protein kinase 1 (Homo sapiens) (Q9BUB5 whole entry, looked up): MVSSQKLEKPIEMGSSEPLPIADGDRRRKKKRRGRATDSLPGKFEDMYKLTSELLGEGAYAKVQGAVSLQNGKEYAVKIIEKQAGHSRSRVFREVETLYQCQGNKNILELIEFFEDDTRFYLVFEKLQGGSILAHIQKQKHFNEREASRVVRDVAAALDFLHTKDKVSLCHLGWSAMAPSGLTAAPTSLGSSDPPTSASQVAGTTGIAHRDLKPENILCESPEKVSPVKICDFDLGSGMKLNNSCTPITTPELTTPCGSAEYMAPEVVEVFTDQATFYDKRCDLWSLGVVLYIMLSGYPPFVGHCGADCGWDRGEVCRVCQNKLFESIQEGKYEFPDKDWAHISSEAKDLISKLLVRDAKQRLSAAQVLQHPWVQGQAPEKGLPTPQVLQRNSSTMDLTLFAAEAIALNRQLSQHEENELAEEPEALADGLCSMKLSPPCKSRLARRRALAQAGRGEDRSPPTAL
Chain of Vascular endothelial growth factor receptor 2 (Homo sapiens) (P35968 whole entry): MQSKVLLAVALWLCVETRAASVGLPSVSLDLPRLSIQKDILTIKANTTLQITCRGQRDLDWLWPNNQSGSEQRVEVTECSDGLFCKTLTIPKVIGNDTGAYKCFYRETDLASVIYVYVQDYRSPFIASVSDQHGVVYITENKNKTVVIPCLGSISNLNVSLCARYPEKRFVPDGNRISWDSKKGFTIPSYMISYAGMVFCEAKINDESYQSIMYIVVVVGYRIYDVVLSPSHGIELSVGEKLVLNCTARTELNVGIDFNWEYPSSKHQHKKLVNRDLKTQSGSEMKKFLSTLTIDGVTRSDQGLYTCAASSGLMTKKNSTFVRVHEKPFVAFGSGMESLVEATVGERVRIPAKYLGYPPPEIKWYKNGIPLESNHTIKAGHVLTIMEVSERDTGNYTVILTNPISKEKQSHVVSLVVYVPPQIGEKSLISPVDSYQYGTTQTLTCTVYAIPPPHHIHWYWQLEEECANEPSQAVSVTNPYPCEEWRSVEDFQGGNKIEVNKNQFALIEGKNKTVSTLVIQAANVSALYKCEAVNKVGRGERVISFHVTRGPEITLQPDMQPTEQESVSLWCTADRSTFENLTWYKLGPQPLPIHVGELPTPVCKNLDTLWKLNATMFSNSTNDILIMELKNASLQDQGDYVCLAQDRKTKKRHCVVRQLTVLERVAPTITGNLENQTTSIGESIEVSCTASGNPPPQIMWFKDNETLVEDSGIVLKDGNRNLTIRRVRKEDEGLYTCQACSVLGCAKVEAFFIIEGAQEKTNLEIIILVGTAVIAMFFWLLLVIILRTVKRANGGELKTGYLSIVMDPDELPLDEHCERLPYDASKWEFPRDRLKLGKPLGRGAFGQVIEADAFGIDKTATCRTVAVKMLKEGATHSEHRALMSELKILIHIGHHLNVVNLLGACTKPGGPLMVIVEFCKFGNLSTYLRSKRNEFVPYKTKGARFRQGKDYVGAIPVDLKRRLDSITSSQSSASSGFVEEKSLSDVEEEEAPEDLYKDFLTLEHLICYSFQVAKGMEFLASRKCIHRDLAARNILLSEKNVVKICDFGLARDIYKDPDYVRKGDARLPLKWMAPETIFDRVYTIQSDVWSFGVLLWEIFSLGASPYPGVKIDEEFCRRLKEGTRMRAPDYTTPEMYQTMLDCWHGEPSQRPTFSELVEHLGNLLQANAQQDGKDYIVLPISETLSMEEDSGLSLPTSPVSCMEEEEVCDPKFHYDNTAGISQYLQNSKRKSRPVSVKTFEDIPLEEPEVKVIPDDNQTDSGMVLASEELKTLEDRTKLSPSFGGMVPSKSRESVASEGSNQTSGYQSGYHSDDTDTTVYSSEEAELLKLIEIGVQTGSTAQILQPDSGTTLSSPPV
Chain of Tyrosine-protein kinase Lck (Homo sapiens) (P06239 2-509 limits assumed): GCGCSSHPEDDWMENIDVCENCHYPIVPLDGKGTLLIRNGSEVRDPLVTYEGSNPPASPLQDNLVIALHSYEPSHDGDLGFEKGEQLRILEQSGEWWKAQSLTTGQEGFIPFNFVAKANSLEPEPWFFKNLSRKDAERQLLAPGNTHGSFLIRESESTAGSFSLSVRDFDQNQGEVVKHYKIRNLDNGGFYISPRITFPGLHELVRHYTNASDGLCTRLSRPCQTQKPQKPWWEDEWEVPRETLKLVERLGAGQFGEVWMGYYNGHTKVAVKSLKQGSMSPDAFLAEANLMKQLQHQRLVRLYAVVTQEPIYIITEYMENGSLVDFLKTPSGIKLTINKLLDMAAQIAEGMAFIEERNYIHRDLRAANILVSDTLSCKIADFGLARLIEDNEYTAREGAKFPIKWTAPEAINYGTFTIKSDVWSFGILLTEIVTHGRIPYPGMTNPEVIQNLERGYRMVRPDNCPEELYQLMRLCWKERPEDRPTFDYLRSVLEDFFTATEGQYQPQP
Chain of Receptor-type tyrosine-protein kinase FLT3 (Homo sapiens) (P36888 whole entry): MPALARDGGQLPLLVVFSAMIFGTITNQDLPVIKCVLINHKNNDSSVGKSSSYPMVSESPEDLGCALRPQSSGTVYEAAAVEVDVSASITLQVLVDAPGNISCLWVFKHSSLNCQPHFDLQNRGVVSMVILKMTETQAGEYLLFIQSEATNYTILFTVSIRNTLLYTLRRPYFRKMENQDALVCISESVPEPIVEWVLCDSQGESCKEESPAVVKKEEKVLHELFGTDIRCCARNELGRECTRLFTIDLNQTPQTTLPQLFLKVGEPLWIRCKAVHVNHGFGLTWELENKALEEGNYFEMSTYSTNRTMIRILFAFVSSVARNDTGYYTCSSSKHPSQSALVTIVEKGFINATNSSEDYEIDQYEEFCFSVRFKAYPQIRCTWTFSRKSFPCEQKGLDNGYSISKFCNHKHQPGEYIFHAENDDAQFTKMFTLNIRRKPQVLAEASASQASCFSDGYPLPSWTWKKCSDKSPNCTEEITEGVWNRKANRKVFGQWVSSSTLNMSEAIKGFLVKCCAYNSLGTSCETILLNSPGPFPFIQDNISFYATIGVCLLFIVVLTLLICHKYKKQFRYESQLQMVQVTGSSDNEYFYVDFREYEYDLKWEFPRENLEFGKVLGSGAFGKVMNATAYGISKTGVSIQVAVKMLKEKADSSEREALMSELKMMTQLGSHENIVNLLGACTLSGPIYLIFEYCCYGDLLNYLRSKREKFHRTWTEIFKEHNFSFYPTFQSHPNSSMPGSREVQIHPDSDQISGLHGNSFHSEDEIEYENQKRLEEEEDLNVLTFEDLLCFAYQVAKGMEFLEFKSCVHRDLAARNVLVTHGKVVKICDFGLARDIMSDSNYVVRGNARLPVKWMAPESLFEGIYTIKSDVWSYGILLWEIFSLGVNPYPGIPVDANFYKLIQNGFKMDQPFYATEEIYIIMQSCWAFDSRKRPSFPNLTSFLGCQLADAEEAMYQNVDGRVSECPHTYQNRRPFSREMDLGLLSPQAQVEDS

A word on the inhibition: it is how much of the control response was suppressed. The GI50 is the concentration at which growth is held to half of that of the control. As a reminder, the IC50 is the concentration that inhibits the measured activity by half. Take `CN1CCN(Cc2ccc(NC(=O)Nc3ccc(Oc4ccc5ncccc5c4)cc3)cc2C(F)(F)F)CC1`: the inhibition entry in assay [1], in assay [3], in assay [5], in assay [6], in assay [10] and in [12] was “Active” each time. Also, the inhibition result in assay [15], in [17], in [18], in [20], in [21] and in assay [22] was “Active” each time. Besides, in assay [24], the inhibition entry was “Active”. Further, the inhibition (in assay [2]; in the assay filed under Homo sapiens [4]; in assay [7]; in assay [9]; in [11]; in the assay listed under Homo sapiens [14]) was over 50% in each case. Further, the inhibition in [16] and in [19] was over 50% each time. Also, the GI50 in the assay with K562 turned out to be 6.9 nM; in the assay with BaF3 [13], 162 nM; with BaF3 [23], 36 nM. Besides, the 50% inhibitory concentration (IC50) in [8] came to 38.3 nM.

For `CC(C)(C)c1cc(NC(=O)Nc2ccc(Oc3ccc4ncncc4c3)cc2)n(-c2ccc3ncccc3c2)n1`, the inhibition in [2], in assay [7], in assay [9], in assay [11], in assay [16] and in [19] was over 50% each time. The 50% growth inhibitory concentration (GI50) in the assay with K562 came to 4 nM; with BaF3 [13], 269 nM; in the assay on BaF3 [23] it was 66 nM. Besides, the inhibition result in assay [25], in [26], in assay [27], in assay [28] and in assay [29] was “Active” each time.

With `CC(C)(C)c1cc(NC(=O)Nc2ccc(Oc3ccc4cccnc4c3)cc2)n(-c2ccc3ncccc3c2)n1`, the GI50 was 239 nM with K562, over 10000 nM in the assay with BaF3 [13] and over 5000 nM in the assay on BaF3 [23]. For the same molecule, the half-inhibitory concentration (IC50) in [8] stood at 719 nM. Besides, the inhibition result in [10] and in [12] was “Active” each time.

Consider `CC(C)(C)c1cc(NC(=O)Nc2ccc(Oc3ccc4ncccc4c3)cc2)n(-c2ccc3ncccc3c2)n1`, for which the inhibition (in [2]; in the assay filed under Homo sapiens [4]; in assay [7]; in assay [9]; in assay [11]; in the assay listed under Homo sapiens [14]) was over 50% each time. In addition, the inhibition in [16] and in [19] was over 50% in each case. For the same molecule, the GI50 stood at 13 nM in the assay with K562, 801 nM with BaF3 [13] and 164 nM in the assay on BaF3 [23]. Further, the concentration for half-maximal inhibition (IC50) in assay [8] was found to be 345 nM; in assay [30], 12 nM. Further, the inhibition entry in [10], in assay [26], in [12] and in assay [29] was “Active” each time.

As to `CN1CCN(Cc2ccc(NC(=O)Nc3ccc(Oc4ccc5ncncc5c4)cc3)cc2C(F)(F)F)CC1`, the inhibition entry in assay [1], in assay [5], in assay [6], in assay [25], in [27] and in [28] was “Active” each time. Moreover, in assay [24], the inhibition entry was “Active”. The inhibition (in assay [2]; in the assay filed under Homo sapiens [4]; in assay [7]; in assay [9]; in assay [11]; in the assay listed under Homo sapiens [14]) was over 50% each time. Besides, the inhibition in [16] and in [19] was over 50% in each case. Moreover, the results for the GI50 in the assay with K562, in the assay on BaF3 [13] and in the assay on BaF3 [23] were 2.3 nM, 117 nM and 83 nM, respectively. The same molecule returned an IC50 in [8] of 15.7 nM.

With `CN1CCN(Cc2ccc(NC(=O)Nc3ccc(Oc4ccc5cccnc5c4)cc3)cc2C(F)(F)F)CC1`, the inhibition result in assay [1], in [5], in assay [6], in assay [10], in assay [12] and in [24] was “Active” each time. Also, the concentration for 50% growth inhibition (GI50) in the assay on K562 was 451 nM; in the assay on BaF3 [13], over 10000 nM; with BaF3 [23], over 10000 nM. In addition, half-maximal inhibition in [8] (IC50) required 637 nM.
